{"source": "patent US7951232B2", "about": "“Surface coating compositions and methods” (Elevance Renewable Sciences, Inc., priority 2006, dated 2011)", "experiment_in_all_cases": "Dry film preservative test, growth on PDA agar surface", "format_in_all_cases": "cell-based", "key": {"[1]": {"system": "Cladosporium cladosporiodes ATCC 16022", "procedure": "(§1) The efficacy of 9-decenoic acid and the methyl ester of 9-decenoic acid as a dry film preservative was determined through the incubation of Trichoderma virens ATCC 9645, Cladosporium cladosporiodes ATCC 16022 and Aureobasidium pullulans ATCC 12536 in the presence of varying concentrations of 9-decenoic acid or the methyl ester of 9-decenoic acid on an agar surface.\n(§2) Fungal spores were hydrated overnight in 0.1% Tween 80 and then plated on Potato Dextrose Agar (PDA) and incubated at 25-30° C. for 6 days. The spores were washed from the surface with 5 mls of 0.1% Tween 80 and enumerated.\n(§3) PDA plates with prepared according to the manufactures instructions through sterilization. The agar was tempered to approximately 50° C. and filter sterilized 9-decenoic acid was added to achieve concentrations of 0.1, 0.5 and 1.0% in the agar. Additionally, one concentration of the methyl ester of 9-decenoic acid (0.5%) was also prepared. The agar was thoroughly mixed and poured into sterile petri plates and allowed to solidify.\n(§4) The agar plates were inoculated with the spore solution to achieve 10^2 spores/plate. The plates were incubated at 25-30° C. in Ziploc bags with a wet paper towel to keep the moisture level high. The plates were examined for growth after 4, 7, 16, 24 and 31 days. The percent coverage of growth on the agar surface was recorded at each sample point."}, "[2]": {"system": "Aureobasidium pullulans ATCC 12536", "procedure": "as §1, §2, §3, §4"}, "[3]": {"system": "Trichoderma virens ATCC 9645", "procedure": "as §1, §2, §3, §4"}}}
{"smiles": "C=CCCCCCCCC(=O)O", "note": "[9-decenoic acid]", "values": [{"measurement": "Percentage coverage of agar surface", "setting": "[1]; 0.1% in PDA agar, 4 days", "result": 0, "unit": "%"}, {"measurement": "Percentage coverage of agar surface", "setting": "[1]; 0.1% in PDA agar, 7 days", "result": 0, "unit": "%"}, {"measurement": "Percentage coverage of agar surface", "setting": "[1]; 0.1% in PDA agar, 16 days", "result": 0, "unit": "%"}, {"measurement": "Percentage coverage of agar surface", "setting": "[1]; 0.1% in PDA agar, 24 days", "result": 0, "unit": "%"}, {"measurement": "Percentage coverage of agar surface", "setting": "[1]; 0.1% in PDA agar, 31 days", "result": 0, "unit": "%"}, {"measurement": "Percentage coverage of agar surface", "setting": "[1]; 0.5% in PDA agar, 4 days", "result": 0, "unit": "%"}, {"measurement": "Percentage coverage of agar surface", "setting": "[1]; 0.5% in PDA agar, 7 days", "result": 0, "unit": "%"}, {"measurement": "Percentage coverage of agar surface", "setting": "[1]; 0.5% in PDA agar, 16 days", "result": 0, "unit": "%"}, {"measurement": "Percentage coverage of agar surface", "setting": "[1]; 0.5% in PDA agar, 24 days", "result": 0, "unit": "%"}, {"measurement": "Percentage coverage of agar surface", "setting": "[1]; 0.5% in PDA agar, 31 days", "result": 0, "unit": "%"}, {"measurement": "Percentage coverage of agar surface", "setting": "[1]; 1.0% in PDA agar, 4 days", "result": 0, "unit": "%"}, {"measurement": "Percentage coverage of agar surface", "setting": "[1]; 1.0% in PDA agar, 7 days", "result": 0, "unit": "%"}, {"measurement": "Percentage coverage of agar surface", "setting": "[1]; 1.0% in PDA agar, 16 days", "result": 0, "unit": "%"}, {"measurement": "Percentage coverage of agar surface", "setting": "[1]; 1.0% in PDA agar, 24 days", "result": 0, "unit": "%"}, {"measurement": "Percentage coverage of agar surface", "setting": "[1]; 1.0% in PDA agar, 31 days", "result": 0, "unit": "%"}, {"measurement": "effectiveness as dry film preservative", "setting": "[1]; at 0.1% for up to 31 days", "result": "effective"}, {"measurement": "Percentage coverage of agar surface", "setting": "[2]; 0.1% in PDA agar, 4 days", "result": 0, "unit": "%"}, {"measurement": "Percentage coverage of agar surface", "setting": "[2]; 0.1% in PDA agar, 7 days", "result": 0, "unit": "%"}, {"measurement": "Percentage coverage of agar surface", "setting": "[2]; 0.1% in PDA agar, 16 days", "result": 0, "unit": "%"}, {"measurement": "Percentage coverage of agar surface", "setting": "[2]; 0.1% in PDA agar, 24 days", "result": 0, "unit": "%"}, {"measurement": "Percentage coverage of agar surface", "setting": "[2]; 0.1% in PDA agar, 31 days", "result": 0, "unit": "%"}, {"measurement": "Percentage coverage of agar surface", "setting": "[2]; 0.5% in PDA agar, 4 days", "result": 0, "unit": "%"}, {"measurement": "Percentage coverage of agar surface", "setting": "[2]; 0.5% in PDA agar, 7 days", "result": 0, "unit": "%"}, {"measurement": "Percentage coverage of agar surface", "setting": "[2]; 0.5% in PDA agar, 16 days", "result": 0, "unit": "%"}, {"measurement": "Percentage coverage of agar surface", "setting": "[2]; 0.5% in PDA agar, 24 days", "result": 0, "unit": "%"}, {"measurement": "Percentage coverage of agar surface", "setting": "[2]; 0.5% in PDA agar, 31 days", "result": 0, "unit": "%"}, {"measurement": "Percentage coverage of agar surface", "setting": "[2]; 1.0% in PDA agar, 4 days", "result": 0, "unit": "%"}, {"measurement": "Percentage coverage of agar surface", "setting": "[2]; 1.0% in PDA agar, 7 days", "result": 0, "unit": "%"}, {"measurement": "Percentage coverage of agar surface", "setting": "[2]; 1.0% in PDA agar, 16 days", "result": 0, "unit": "%"}, {"measurement": "Percentage coverage of agar surface", "setting": "[2]; 1.0% in PDA agar, 24 days", "result": 0, "unit": "%"}, {"measurement": "Percentage coverage of agar surface", "setting": "[2]; 1.0% in PDA agar, 31 days", "result": 0, "unit": "%"}, {"measurement": "effectiveness as dry film preservative", "setting": "[2]; at 0.1% for up to 31 days", "result": "effective"}, {"measurement": "Percentage coverage of agar surface", "setting": "[3]; 0.1% in PDA agar, 4 days", "result": 0, "unit": "%"}, {"measurement": "Percentage coverage of agar surface", "setting": "[3]; 0.1% in PDA agar, 7 days", "result": 0, "unit": "%"}, {"measurement": "Percentage coverage of agar surface", "setting": "[3]; 0.1% in PDA agar, 16 days", "result": 0, "unit": "%"}, {"measurement": "Percentage coverage of agar surface", "setting": "[3]; 0.1% in PDA agar, 24 days", "result": 0, "unit": "%"}, {"measurement": "Percentage coverage of agar surface", "setting": "[3]; 0.1% in PDA agar, 31 days", "result": 0, "unit": "%"}, {"measurement": "Percentage coverage of agar surface", "setting": "[3]; 0.5% in PDA agar, 4 days", "result": 0, "unit": "%"}, {"measurement": "Percentage coverage of agar surface", "setting": "[3]; 0.5% in PDA agar, 7 days", "result": 0, "unit": "%"}, {"measurement": "Percentage coverage of agar surface", "setting": "[3]; 0.5% in PDA agar, 16 days", "result": 0, "unit": "%"}, {"measurement": "Percentage coverage of agar surface", "setting": "[3]; 0.5% in PDA agar, 24 days", "result": 0, "unit": "%"}, {"measurement": "Percentage coverage of agar surface", "setting": "[3]; 0.5% in PDA agar, 31 days", "result": 0, "unit": "%"}, {"measurement": "Percentage coverage of agar surface", "setting": "[3]; 1.0% in PDA agar, 4 days", "result": 0, "unit": "%"}, {"measurement": "Percentage coverage of agar surface", "setting": "[3]; 1.0% in PDA agar, 7 days", "result": 0, "unit": "%"}, {"measurement": "Percentage coverage of agar surface", "setting": "[3]; 1.0% in PDA agar, 16 days", "result": 0, "unit": "%"}, {"measurement": "Percentage coverage of agar surface", "setting": "[3]; 1.0% in PDA agar, 24 days", "result": 0, "unit": "%"}, {"measurement": "Percentage coverage of agar surface", "setting": "[3]; 1.0% in PDA agar, 31 days", "result": 0, "unit": "%"}, {"measurement": "effectiveness as dry film preservative", "setting": "[3]; at 0.1% for up to 31 days", "result": "effective"}]}
